Assay results: patent publication US20160346356A1, “USE OF RNA INTERFERENCE, FARNESOIC ACID AND RECOMBINANT PROTEIN APPROACH TO INDUCE GONAD MATURATION IN CRUSTACEAN SPECIES” (priority 2013, published 2016)
Like-named read-outs stand apart in the source and are kept apart here.

Key:
HaVg1 gene expression = settings: hepatopancreas explant, cited from earlier work
gonad maturation = experiment: Example 2: FA injection into female shrimp, gonadosomatic index; assay type: in vivo; settings: FA 1 μg/g of body weight, day 6
Protocol: Farnesoic acid (FA) is known to be able to stimulate vitellogenin synthesis in crab, shrimp and lobster. Stock of FA is prepared in ultra-pure mineral oil and female shrimp will be injected with FA.
Fifty female shrimp are injected with FA through the arthropodial membrane (e.g. at 1 μg/g of body weight) 1 day after they molt. After injection, the shrimp is returned to the culture tank for culture. A group of 10 shrimps are randomly selected at a 24-hour interval. 50 μl of hemolymph sample will be taken from the shrimps for analyzing the vitellogenin level by ELISA. On day 6, all the shrimps will be sacrificed and their ovary will be weighted for estimating the gonadosomatic index (GSI), which is the ratio of ovary weight to total body weight. A control group is also setup in which the shrimps are injected with the same volume of mineral oil without any FA. Shrimps injected with FA should have a higher ovary weight to total shrimp weight than the control.

[1] = test system: expression of vitellogenin; settings: red crab; cited from earlier work

Row | Structure (SMILES) | increase in HaVg1 gene expression (HaVg1 gene expression; 0.7 μM 20E) [fold] | ovary weight to total shrimp weight (GSI) versus control (gonad maturation) | expression of vitellogenin [1] | increase in HaVg1 gene expression (HaVg1 gene expression; 4.2 μM FA) [fold]
1 | CC(C)(O)CC[C@@H](O)[C@](C)(O)[C@H]1CC[C@@]2(O)C3=CC(=O)[C@@H]4C[C@@H](O)[C@@H](O)C[C@]4(C)[C@H]3CC[C@]12C [20E, 20-hydroxyecdysone] | 2.2 |  |  | 
2 | CC(C)=CCCC(C)=CCCC(C)=CC(=O)O [FA, farnesoic acid] |  | higher | stimulate | 2
